In ChEMBL document CHEMBL5696442, “Discovery of type II inhibitors of TGFβ-activated kinase 1 (TAK1) and mitogen-activated protein kinase kinase kinase kinase 2 (MAP4K2)” (J Med Chem, 2015):
The source made the active and inactive calls. No cut-off for these calls is given here.

Key:
[1] = biological target: Death-associated protein kinase 1 (Homo sapiens) (UniProt P53355); test: Inhibition of DAPK1 (unknown origin) at 10 uM by Ambit Kinomescan binding assay
[2] = biological target: Cyclin-dependent kinase 11B (Homo sapiens) (UniProt P21127); test: Inhibition of CDK11 Lys2 labeling site in human A-375 cells at 0.5 uM by KiNativ Profiling analysis relative to control; type: cell-based
Cyclin-dependent kinase 11B (Homo sapiens), sequence (P21127 whole entry): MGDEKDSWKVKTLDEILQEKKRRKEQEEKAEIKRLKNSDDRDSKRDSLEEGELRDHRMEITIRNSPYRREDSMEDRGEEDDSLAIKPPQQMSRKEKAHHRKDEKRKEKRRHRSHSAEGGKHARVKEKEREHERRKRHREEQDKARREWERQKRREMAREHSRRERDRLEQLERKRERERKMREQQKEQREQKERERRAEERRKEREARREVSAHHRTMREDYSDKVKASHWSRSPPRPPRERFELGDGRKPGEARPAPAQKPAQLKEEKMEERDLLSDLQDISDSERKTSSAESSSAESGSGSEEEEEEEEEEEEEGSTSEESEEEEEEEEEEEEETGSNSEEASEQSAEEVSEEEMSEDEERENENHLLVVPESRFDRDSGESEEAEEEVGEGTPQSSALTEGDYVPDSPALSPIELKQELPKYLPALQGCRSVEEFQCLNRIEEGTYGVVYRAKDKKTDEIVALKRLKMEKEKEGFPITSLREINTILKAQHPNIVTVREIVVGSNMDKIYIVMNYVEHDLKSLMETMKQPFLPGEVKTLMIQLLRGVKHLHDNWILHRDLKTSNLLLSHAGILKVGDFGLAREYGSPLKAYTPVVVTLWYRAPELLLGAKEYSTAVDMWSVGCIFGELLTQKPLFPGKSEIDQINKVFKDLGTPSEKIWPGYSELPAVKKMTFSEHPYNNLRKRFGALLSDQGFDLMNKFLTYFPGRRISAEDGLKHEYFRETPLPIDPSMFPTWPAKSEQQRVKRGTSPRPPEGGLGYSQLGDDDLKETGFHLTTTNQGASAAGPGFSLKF

[3] = biological target: Mitogen-activated protein kinase kinase kinase 4 (Homo sapiens) (UniProt Q9Y6R4); test: Inhibition of MAP3K4 (unknown origin) at 10 uM by Ambit Kinomescan binding assay
Mitogen-activated protein kinase kinase kinase 4 (Homo sapiens), sequence (Q9Y6R4 whole entry): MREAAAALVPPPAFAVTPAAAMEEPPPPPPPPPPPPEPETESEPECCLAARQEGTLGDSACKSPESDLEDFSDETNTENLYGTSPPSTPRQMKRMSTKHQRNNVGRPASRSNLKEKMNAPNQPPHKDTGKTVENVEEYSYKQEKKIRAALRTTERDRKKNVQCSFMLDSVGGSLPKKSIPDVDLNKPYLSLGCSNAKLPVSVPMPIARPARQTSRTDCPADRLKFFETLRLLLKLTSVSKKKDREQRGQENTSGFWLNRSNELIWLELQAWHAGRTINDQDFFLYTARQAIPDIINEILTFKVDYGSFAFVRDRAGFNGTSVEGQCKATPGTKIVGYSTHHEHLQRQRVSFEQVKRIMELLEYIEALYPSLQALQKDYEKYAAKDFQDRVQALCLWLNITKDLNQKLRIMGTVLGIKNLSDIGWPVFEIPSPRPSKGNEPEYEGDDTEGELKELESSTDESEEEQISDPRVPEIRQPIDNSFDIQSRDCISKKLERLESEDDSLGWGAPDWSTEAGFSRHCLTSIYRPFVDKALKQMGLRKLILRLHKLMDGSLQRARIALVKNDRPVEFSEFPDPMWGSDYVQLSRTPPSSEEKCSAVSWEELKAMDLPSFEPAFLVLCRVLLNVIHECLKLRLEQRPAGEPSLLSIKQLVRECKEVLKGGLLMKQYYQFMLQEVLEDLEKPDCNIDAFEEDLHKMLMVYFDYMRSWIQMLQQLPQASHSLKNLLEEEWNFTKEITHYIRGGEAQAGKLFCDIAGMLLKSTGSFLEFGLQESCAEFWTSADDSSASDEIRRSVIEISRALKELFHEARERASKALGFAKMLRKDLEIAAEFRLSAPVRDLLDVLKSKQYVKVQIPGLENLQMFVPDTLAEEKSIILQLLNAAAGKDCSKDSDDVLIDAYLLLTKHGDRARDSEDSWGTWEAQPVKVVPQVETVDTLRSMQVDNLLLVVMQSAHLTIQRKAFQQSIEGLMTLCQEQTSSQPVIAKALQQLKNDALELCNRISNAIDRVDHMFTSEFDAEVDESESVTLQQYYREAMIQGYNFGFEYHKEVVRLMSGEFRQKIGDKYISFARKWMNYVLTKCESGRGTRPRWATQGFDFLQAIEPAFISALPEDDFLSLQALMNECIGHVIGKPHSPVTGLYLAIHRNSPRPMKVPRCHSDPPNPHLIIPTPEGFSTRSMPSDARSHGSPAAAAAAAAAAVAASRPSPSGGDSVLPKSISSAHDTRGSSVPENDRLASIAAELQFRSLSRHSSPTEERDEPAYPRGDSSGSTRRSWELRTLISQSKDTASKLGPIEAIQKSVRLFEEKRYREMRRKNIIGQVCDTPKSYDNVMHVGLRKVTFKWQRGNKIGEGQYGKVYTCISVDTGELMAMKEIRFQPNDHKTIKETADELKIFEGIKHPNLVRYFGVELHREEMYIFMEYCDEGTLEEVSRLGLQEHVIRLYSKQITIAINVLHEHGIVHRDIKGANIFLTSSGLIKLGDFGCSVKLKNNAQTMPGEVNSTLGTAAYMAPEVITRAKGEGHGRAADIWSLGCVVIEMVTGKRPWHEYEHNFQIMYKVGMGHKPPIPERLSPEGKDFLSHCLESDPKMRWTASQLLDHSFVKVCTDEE

[4] = biological target: Cyclin-dependent kinase 9 (Homo sapiens) (UniProt P50750); test: Inhibition of CDK9 K2 labeling site in human Huh-7 cells at 10 uM by KiNativ Profiling analysis relative to control; type: cell-based
Cyclin-dependent kinase 9 (Homo sapiens), sequence (P50750 whole entry): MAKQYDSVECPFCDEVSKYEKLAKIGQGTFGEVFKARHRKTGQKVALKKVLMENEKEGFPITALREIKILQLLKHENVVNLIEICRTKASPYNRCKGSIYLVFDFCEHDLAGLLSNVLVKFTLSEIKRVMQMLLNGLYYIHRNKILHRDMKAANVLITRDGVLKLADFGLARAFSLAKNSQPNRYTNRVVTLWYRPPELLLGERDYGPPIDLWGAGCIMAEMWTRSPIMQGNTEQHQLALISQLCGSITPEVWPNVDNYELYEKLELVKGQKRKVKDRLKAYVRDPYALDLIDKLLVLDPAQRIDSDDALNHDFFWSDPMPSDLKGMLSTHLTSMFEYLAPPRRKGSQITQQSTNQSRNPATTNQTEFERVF

[5] = biological target: T1, Mitogen-activated protein kinase kinase kinase 15 (Homo sapiens) (UniProt Q6ZN16); test: Inhibition of MAP3K15 Lys1 labeling site harbouring IAIKEIPER in human A-375 cells at 0.05 uM by KiNativ Profiling analysis relative to control; type: cell-based
T1 sequence (whole entry): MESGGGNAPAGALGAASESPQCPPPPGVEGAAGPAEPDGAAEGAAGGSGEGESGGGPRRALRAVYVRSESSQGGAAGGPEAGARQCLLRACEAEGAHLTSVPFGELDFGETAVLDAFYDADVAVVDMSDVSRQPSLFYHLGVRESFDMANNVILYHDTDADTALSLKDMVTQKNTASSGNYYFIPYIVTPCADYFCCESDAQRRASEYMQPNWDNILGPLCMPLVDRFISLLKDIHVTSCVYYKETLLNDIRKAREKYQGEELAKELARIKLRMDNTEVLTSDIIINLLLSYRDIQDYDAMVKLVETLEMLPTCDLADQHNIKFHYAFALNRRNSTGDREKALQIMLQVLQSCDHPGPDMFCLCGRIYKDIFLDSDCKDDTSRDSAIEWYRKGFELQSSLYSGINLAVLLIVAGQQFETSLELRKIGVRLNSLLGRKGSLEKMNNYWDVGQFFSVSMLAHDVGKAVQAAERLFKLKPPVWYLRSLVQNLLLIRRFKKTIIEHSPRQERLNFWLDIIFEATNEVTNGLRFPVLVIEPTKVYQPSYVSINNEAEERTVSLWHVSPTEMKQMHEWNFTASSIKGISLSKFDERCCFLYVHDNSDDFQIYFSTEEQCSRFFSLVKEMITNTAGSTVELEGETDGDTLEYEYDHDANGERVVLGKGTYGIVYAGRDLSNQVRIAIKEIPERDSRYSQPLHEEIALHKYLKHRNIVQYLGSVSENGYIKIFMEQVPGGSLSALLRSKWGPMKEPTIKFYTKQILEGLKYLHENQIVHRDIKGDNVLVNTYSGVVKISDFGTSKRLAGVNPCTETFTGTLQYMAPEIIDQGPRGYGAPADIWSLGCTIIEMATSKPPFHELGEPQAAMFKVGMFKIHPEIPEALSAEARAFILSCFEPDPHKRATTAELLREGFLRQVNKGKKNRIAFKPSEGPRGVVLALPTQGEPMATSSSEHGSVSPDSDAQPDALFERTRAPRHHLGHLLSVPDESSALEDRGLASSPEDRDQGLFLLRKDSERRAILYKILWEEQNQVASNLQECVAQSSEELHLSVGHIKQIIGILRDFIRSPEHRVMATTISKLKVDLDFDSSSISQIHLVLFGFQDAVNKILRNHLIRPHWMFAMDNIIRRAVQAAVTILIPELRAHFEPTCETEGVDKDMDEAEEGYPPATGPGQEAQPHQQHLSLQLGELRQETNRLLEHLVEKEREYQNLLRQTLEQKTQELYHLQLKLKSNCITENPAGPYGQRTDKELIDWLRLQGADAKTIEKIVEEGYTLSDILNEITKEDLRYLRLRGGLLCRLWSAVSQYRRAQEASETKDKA

[6] = biological target: Peripheral plasma membrane protein CASK (Homo sapiens) (UniProt O14936); test: Inhibition of CASK K1 labeling site in human Huh-7 cells at 10 uM by KiNativ Profiling analysis relative to control
[7] = biological target: Casein kinase I isoform gamma-2 (Homo sapiens) (UniProt P78368); test: Inhibition of CSNK1G2 (unknown origin) at 10 uM by Ambit Kinomescan binding assay
Casein kinase I isoform gamma-2 (Homo sapiens), sequence (P78368 whole entry, looked up, canonical isoform): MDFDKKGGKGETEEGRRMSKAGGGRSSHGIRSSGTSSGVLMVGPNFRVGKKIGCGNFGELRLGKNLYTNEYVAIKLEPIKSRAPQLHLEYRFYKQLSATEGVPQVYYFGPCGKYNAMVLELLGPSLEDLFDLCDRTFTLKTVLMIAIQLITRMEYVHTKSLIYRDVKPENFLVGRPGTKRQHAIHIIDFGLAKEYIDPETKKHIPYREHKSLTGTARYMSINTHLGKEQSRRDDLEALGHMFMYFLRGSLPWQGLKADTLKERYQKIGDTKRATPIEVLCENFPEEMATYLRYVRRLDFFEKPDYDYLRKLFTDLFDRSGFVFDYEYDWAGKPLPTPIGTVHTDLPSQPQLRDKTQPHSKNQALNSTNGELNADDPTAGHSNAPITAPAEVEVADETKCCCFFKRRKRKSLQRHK

[8] = biological target: T2, Serine/threonine-protein kinase 3 (Homo sapiens) (UniProt Q13188); test: Inhibition of MST2 Lys1 labeling site in human Huh-7 cells at 1 uM by KiNativ Profiling analysis relative to control; type: cell-based
T2 sequence (whole entry): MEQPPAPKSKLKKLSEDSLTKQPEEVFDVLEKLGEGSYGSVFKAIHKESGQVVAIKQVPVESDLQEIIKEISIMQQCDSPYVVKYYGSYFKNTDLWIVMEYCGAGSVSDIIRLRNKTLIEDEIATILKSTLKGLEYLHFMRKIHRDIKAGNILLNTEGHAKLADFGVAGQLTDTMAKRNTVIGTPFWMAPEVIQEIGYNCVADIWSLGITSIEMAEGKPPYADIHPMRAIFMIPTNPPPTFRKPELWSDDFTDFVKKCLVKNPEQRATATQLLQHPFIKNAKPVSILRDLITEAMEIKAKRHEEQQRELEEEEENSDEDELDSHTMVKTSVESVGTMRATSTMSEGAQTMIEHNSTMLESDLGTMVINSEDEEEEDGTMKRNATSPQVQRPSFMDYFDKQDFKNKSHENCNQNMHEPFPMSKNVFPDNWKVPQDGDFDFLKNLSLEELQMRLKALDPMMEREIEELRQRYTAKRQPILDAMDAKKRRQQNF

[9] = biological target: T3, Serine/threonine-protein kinase Chk1 (Homo sapiens) (UniProt O14757); test: Inhibition of CHK1 Lys2 labeling site in human Huh-7 cell lysate at 1 uM by KiNativ Profiling analysis relative to control; type: subcellular
T3 sequence (whole entry): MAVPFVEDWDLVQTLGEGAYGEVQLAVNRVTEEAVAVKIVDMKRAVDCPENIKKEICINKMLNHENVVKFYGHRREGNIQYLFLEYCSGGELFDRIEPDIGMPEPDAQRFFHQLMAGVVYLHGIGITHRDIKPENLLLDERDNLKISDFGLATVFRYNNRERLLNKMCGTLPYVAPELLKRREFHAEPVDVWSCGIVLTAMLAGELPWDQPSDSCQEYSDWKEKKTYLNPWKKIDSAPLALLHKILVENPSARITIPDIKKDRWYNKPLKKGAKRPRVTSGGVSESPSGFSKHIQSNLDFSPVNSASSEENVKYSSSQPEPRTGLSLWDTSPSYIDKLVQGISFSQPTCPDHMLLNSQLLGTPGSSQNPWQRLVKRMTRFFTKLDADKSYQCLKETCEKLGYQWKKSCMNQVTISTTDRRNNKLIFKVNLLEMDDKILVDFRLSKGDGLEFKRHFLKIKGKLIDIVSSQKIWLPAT

[10] = biological target: Serine/threonine-protein kinase 38 (Homo sapiens) (UniProt Q15208); test: Inhibition of NDR1 ACT labeling site in human Huh-7 cell lysate at 1 uM by KiNativ Profiling analysis relative to control; type: subcellular
Serine/threonine-protein kinase 38 (Homo sapiens), sequence (Q15208 2-465 limits assumed): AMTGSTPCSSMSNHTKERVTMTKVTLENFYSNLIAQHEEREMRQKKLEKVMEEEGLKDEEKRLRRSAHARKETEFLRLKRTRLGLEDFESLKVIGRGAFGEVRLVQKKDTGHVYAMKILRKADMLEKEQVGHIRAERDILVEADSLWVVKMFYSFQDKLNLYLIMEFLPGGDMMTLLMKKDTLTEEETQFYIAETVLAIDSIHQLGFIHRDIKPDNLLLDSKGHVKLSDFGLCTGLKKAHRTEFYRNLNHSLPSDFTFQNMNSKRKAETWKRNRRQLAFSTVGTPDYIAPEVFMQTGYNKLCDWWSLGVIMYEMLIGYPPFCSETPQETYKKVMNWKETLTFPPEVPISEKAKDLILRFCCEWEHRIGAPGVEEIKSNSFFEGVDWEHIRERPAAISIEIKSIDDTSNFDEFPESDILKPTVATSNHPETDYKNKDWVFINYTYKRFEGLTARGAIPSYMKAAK

Death-associated protein kinase 1 (Homo sapiens), sequence (P53355 whole entry, looked up): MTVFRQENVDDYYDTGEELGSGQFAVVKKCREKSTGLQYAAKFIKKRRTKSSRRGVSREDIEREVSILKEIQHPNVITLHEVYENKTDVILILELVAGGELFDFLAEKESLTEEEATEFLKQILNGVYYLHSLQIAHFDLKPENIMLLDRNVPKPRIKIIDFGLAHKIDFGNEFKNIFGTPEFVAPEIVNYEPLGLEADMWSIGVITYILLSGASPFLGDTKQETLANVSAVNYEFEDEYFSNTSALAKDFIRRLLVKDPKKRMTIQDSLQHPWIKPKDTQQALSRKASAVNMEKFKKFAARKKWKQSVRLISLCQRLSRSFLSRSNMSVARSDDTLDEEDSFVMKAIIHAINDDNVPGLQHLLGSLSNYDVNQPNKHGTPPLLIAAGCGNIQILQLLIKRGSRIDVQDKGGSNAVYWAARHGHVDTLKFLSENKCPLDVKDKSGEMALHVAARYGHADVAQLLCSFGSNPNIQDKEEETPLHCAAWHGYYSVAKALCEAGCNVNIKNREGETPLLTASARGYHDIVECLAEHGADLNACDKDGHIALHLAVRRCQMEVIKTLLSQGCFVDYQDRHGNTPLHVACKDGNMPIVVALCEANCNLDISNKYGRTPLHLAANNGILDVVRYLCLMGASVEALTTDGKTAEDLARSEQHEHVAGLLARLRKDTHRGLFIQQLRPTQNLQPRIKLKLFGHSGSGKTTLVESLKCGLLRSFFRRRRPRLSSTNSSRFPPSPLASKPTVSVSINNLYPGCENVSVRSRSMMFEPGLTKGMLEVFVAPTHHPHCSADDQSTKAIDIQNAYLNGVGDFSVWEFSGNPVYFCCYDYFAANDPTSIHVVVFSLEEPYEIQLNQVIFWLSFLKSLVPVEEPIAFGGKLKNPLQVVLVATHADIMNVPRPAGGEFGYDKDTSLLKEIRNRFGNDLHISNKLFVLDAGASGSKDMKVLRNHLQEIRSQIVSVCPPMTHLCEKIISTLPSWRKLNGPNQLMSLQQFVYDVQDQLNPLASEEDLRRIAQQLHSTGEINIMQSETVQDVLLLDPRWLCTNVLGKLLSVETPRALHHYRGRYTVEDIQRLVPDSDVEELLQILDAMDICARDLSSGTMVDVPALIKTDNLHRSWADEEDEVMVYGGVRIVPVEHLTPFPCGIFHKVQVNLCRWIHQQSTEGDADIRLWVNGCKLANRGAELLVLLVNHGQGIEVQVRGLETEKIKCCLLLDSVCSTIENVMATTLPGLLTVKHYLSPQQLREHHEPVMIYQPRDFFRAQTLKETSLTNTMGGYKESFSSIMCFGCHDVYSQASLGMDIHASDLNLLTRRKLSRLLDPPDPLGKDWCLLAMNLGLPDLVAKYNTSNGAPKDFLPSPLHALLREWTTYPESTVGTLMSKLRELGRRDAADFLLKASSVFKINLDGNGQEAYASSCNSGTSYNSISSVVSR

Compound	inhibition [1]	inhibition [2]	inhibition [3]	inhibition [4]	inhibition [5]	inhibition [6]	inhibition [7]	inhibition [8]	inhibition [9]	inhibition [10]
CCN1CCN(Cc2ccc(NC(=O)c3ccc(C)c(Oc4ccnc5[nH]ccc45)c3)cc2C(F)(F)F)CC1	inactive	51.2%	inactive	0.4%	10.8%	12%	inactive	–	–	–
CNc1cc(Oc2cc(C(=O)Nc3cc(N4CCN(C)CC4)cc(C(F)(F)F)c3)ccc2C)ncn1	–	–	–	–	–	–	–	5.3%	-1.1%	4.2%
